Data on 17 compounds can be found in PubChem BioAssay (NCI).

Structures are written as SMILES. Several values for one entry are separate records, joined by “and”; a condition that tells them apart may be missing. Equal entries are not always repeated.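 How tested: cells in 96-well plates exposed to compound for 48 hours at five concentrations. GI50 is the concentration that inhibits growth by half. TGI: total growth inhibition.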 Where only a bound is given, the exact number is not on record here.

Among the test systems are DMS 273 small cell lung; KM12 colon; KM20L2 colon; SK-MEL-28 melanoma; HOP-18 NSCLC; DMS 114 small cell lung; HS 578T breast; MCF7 breast; NCI/ADR-RES ovarian; T-47D breast.
Holding throughout (test): NCI anticancer screen, dose series, 48 h

As for `Cc1ccc(OCC(=O)N2N=C(c3ccccc3)CC2(O)c2ccccc2)cc1` (configuration not stated), the TGI was 40.2 µM with DMS 273 small cell lung, over 100 µM in the experiment with KM12 colon, 41.3 µM in the experiment with KM20L2 colon and over 100 µM in the experiment on SK-MEL-28 melanoma.

In the case of `CNC(P(=O)([O-])[O-])P(=O)([O-])[O-].N.N.[Pt+2]`, the GI50 in the experiment with DMS 273 small cell lung, in the experiment on HOP-18 NSCLC, with KM20L2 colon and in the experiment on SK-MEL-28 melanoma was over 100 µM each time. The TGI in the experiment with DMS 273 small cell lung, in the experiment on HOP-18 NSCLC, in the experiment on KM20L2 colon and in the experiment on SK-MEL-28 melanoma was over 100 µM each time.

Take `CC1=C(C)C(=O)c2c(cc3ccc4ccccc4n23)C1=O`: the TGI in the experiment with DMS 114 small cell lung, in the experiment on DMS 273 small cell lung, in the experiment with HOP-18 NSCLC, in the experiment with KM12 colon and with SK-MEL-28 melanoma was over 100 µM throughout.

For the compound `O=c1c2ccccc2[nH]c(=S)n1-c1ccc(Br)cc1`, the TGI in the experiment on DMS 114 small cell lung, with HOP-18 NSCLC, in the experiment with KM12 colon, in the experiment with KM20L2 colon and in the experiment on SK-MEL-28 melanoma was over 100 µM in each case.

For `O=C(c1ccccc1)C(C(=O)c1ccccc1)C1(O)C(=O)c2ccccc2C1=O`, the TGI with DMS 273 small cell lung, in the experiment on HOP-18 NSCLC, with KM12 colon, in the experiment with KM20L2 colon and with SK-MEL-28 melanoma was over 100 µM each time.

Regarding `CS(=O)(=O)CCNCc1nc(-c2ccc3ncnc(Nc4ccc(F)c(Cl)c4)c3c2)cs1`, the GI50 was 15.9 µM with HS 578T breast; 21.1 µM in the experiment with KM12 colon; over 23.3 µM in the experiment with MCF7 breast; 13.9 µM in the experiment with NCI/ADR-RES ovarian; over 20.2 µM in the experiment with SK-MEL-28 melanoma; 8.57 µM with T-47D breast. The TGI in the experiment with HS 578T breast, with KM12 colon, with MCF7 breast, in the experiment on NCI/ADR-RES ovarian, with SK-MEL-28 melanoma and in the experiment with T-47D breast was over 25 µM throughout.

Regarding `CNC(=O)c1cc(OC2CCC(NC(=O)Nc3ccc(Cl)c(C(F)(F)F)c3)CC2)ccn1` (configuration not stated), the GI50 in the experiment on HS 578T breast is 11.6 µM; with KM12 colon, 0.713 µM; with MCF7 breast it was 3.48 µM; in the experiment on NCI/ADR-RES ovarian, 5.67 µM; with SK-MEL-28 melanoma, 11.4 µM; in the experiment with T-47D breast, 5.31 µM. The TGI worked out at 63.1 µM with HS 578T breast; 14 µM in the experiment with KM12 colon; 18.1 µM with MCF7 breast; 44.3 µM in the experiment with NCI/ADR-RES ovarian; 24.6 µM in the experiment with SK-MEL-28 melanoma; 39.4 µM with T-47D breast.

For `CC[C@H](C)N(CCN)C(=O)c1cc2ccccc2c(-c2ccccc2Cl)n1`, the TGI was found to be 28 µM in the experiment on DMS 114 small cell lung; 27.6 µM in the experiment on DMS 273 small cell lung; 29.6 µM in the experiment on KM12 colon; 26.6 µM in the experiment on KM20L2 colon; 27 µM with SK-MEL-28 melanoma.

Regarding `Nc1ccn(CCOC(=O)c2ccccc2)c(=O)n1`, the TGI with DMS 273 small cell lung, in the experiment on HOP-18 NSCLC, in the experiment with KM12 colon, with KM20L2 colon and in the experiment on SK-MEL-28 melanoma was over 100 µM throughout.

Consider `COc1ccc(-c2nn3ncccc3c2-c2ccnc(Nc3ccc(Cl)c(C(F)(F)F)c3)n2)cc1`, for which the GI50 in the experiment on HS 578T breast is 9.15 µM; in the experiment with KM12 colon, 9.89 µM; with MCF7 breast it was 6.53 µM; with NCI/ADR-RES ovarian, 7.62 µM; in the experiment on SK-MEL-28 melanoma, 16.9 µM; in the experiment with T-47D breast it was 7.21 µM. Besides, the TGI in the experiment with HS 578T breast, in the experiment on KM12 colon, with MCF7 breast, in the experiment with NCI/ADR-RES ovarian, in the experiment on SK-MEL-28 melanoma and in the experiment on T-47D breast was over 25 µM throughout.

As for `O=P(O)(CCP(=O)(O)c1ccccc1)c1ccccc1`, the TGI in the experiment on HS 578T breast, in the experiment on KM12 colon, in the experiment with MCF7 breast, with NCI/ADR-RES ovarian, with SK-MEL-28 melanoma and in the experiment on T-47D breast was over 100 µM throughout.

For the compound `Cc1cc2c(c(C#N)c1C)NC(=O)CCC2=O`, the TGI with DMS 114 small cell lung, in the experiment on DMS 273 small cell lung, with KM12 colon, with KM20L2 colon and with SK-MEL-28 melanoma was over 100 µM in each case.

On to `CN1CC[C@@H](c2c(O)cc(O)c3c(=O)cc(-c4ccccc4Cl)oc23)[C@@H](O)C1`, for which the TGI in the experiment on DMS 114 small cell lung was 0.334 µM; in the experiment on DMS 273 small cell lung, 0.32 µM; in the experiment with KM12 colon it was 26.6 µM; in the experiment on MCF7 breast it was over 77.4 µM; in the experiment on SK-MEL-28 melanoma it was 0.294 µM and 1.45 µM. In addition, the GI50 was 0.0675 µM and 0.11 µM and 0.0213 µM in the experiment on HS 578T breast; 0.0511 µM with KM12 colon; 0.0629 µM and 0.046 µM in the experiment on MCF7 breast; 0.256 µM and 0.0763 µM in the experiment with NCI/ADR-RES ovarian; 0.101 µM and 0.0902 µM in the experiment with SK-MEL-28 melanoma; 0.0824 µM and 0.0669 µM and 0.0342 µM with T-47D breast.

As to `C=C1CC2(OC1=O)C(=O)N(CCCCCCCN1C(=O)C3(CC(=C)C(=O)O3)c3ccccc31)c1ccccc12` (configuration not stated), the GI50 in the experiment with HS 578T breast was 5.92 µM; in the experiment with KM12 colon, 3.39 µM; with MCF7 breast it was 1.35 µM; in the experiment on NCI/ADR-RES ovarian, 1.68 µM; with SK-MEL-28 melanoma, 1.94 µM; with T-47D breast, 1.17 µM. Further, the TGI in the experiment with HS 578T breast came out at 32.3 µM; with KM12 colon, 11.6 µM; with MCF7 breast, 6.9 µM; in the experiment with NCI/ADR-RES ovarian it was 8.78 µM; in the experiment on SK-MEL-28 melanoma, 7.3 µM; in the experiment with T-47D breast, 5.02 µM.

Turning to `Cn1c(=O)nc2n(-c3ccc(Cl)cc3)c3ccc(Cl)cc3nc-2c1=O`, the TGI in the experiment with KM12 colon amounted to 32 µM; in the experiment with KM20L2 colon it was 36.7 µM; in the experiment with SK-MEL-28 melanoma it was 21.4 µM.

With `COc1ccc2nc(N/N=C(\C)c3ccccn3)cc(C)c2c1`, the GI50 is 1.76 µM in the experiment on HS 578T breast; 0.321 µM in the experiment on KM12 colon; 0.288 µM with MCF7 breast; 0.274 µM in the experiment with NCI/ADR-RES ovarian; 0.445 µM in the experiment with SK-MEL-28 melanoma; 0.0766 µM with T-47D breast. Moreover, the TGI in the experiment on HS 578T breast stood at 9.39 µM; in the experiment on KM12 colon, 1.6 µM; in the experiment on MCF7 breast it was 1.07 µM; with SK-MEL-28 melanoma it was 1.68 µM; with T-47D breast, 1.61 µM.

Turning to `C=CCn1c2c(c3ccccc3c1=O)C(=O)c1ccccc1-2`, the TGI in the experiment on HS 578T breast, in the experiment with KM12 colon, in the experiment with MCF7 breast, with NCI/ADR-RES ovarian, in the experiment on SK-MEL-28 melanoma and with T-47D breast was over 100 µM throughout.
